Measured values: patent US20170015654A1, “PYRIDAZINE COMPOUND” (TAKEDA PHARMACEUTICAL COMPANY LIMITED, priority 2014, published 2017)

Key:
human SCD1 = biological target: T1, human SCD1 (Homo sapiens, UniProt O00767); test: Measurement of human SCD1 binding activity (inhibition of binding of radiolabeled compound Z); conditions: 1 μM compound; human SCD1-expressing membrane fraction; compound Z radioligand; read-out: Rate of inhibition of SCD1 binding (%) at compound concentration of 1 μM
T1 construct: made in house; host or cells: High Five insect cells (baculovirus, pFastBac1/hSCD1); membrane fraction
T1 sequence (O00767 1-359): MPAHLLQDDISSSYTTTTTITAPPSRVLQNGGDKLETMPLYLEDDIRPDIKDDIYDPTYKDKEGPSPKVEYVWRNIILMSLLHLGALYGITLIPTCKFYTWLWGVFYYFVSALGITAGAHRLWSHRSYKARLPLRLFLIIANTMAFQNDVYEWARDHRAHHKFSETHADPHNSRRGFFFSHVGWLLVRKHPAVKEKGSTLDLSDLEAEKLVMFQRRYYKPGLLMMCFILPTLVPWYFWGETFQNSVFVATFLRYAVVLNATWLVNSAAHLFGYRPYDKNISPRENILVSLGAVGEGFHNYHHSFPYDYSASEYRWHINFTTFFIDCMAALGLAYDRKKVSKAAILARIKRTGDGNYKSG
Experimental: Measurement of Human SCD1 Binding Activity Using (5-(6-(1′H-spiro[1-benzofuran-3,3′-pyrrolidin]-1′-yl)pyridazin-3-yl)-1,2,4-oxadiazol-3-yl) [^3H2]methanol
The SCD1 binding activity of the compound of the present invention was measured as the activity of inhibiting the binding of (5-(6-(1′H-spiro[1-benzofuran-3,3′-pyrrolidin]-1′-yl)pyridazin-3-yl)-1,2,4-oxadiazol-3-yl)[^3H2]methanol (radiolabeled form of the compound disclosed as a SCD inhibitor in Example 157 of International Publication No. WO2008/096746; in the present specification, also referred to as compound Z) to SCD1.
Specifically, first, Human liver cDNA library (Takara Bio Inc.) was cloned as a template by PCR using KOD-Plus-(Toyobo Co., Ltd.) DNA polymerase. The primers used were 5′-[…]-3′ and 5′-[…]-3′. The amplification fragment was temporarily transferred to a pCR Blunt II-TOPO vector using Zero Blunt PCR Cloning Kit (Life Technologies, Inc.) to obtain pCR Blunt II-TOPO/hSCD1. A fragment obtained by the cleavage of this pCR Blunt II-TOPO/hSCD1 with BamHI and NotI was transferred to pFastBac1 (Life Technologies, Inc.) to construct a recombinant plasmid pFastBac1/hSCD1 for hSCD1 insect cell expression systems.
Baculovirus was prepared using the pFastBac1/hSCD1 plasmid according to the protocol of Bac-to-Bac Baculovirus Expression System (Life Technologies, Inc.).
The insect cells for use in expression were High Five cells (Life Technologies, Inc.) subcultured in a PSFM-J1 medium (Wako Pure Chemical Industries, Ltd.) containing 5% FBS, 10 U/L heparin (Sigma-Aldrich Corp.) and 50 μg/mL gentamicin.
The High Five cells were inoculated at 0.8×10^6 cells/mL and cultured until the following day. When the cell density reached 2.0×10^6 cells/mL, Ammonium Iron(III) Sulfate 12-Water (Wako Pure Chemical Industries, Ltd.) was added thereto at a final concentration of 10 μM. The cells were further infected with the baculovirus and cultured for 3 days.
After the completion of the culture, the culture solution was centrifuged (4° C., 4,000 rpm, […]) and frozen at −80° C. to obtain hSCD1-expressing insect cells. Next, the frozen hSCD1-expressing insect cells were suspended in buffer A (50 mM Tris-HCl (pH 7.5) containing 250 mM sucrose and cOmplete Protease Inhibitor Cocktail Tablets (F. Hoffmann-La Roche, Ltd.)), and the cells were disrupted (4° C., 20,000 rpm, 20 sec×2) using a POLYTORON homogenizer (Central Scientific Commerce, Inc.).
This cell lysate was centrifuged (4° C., 850×g, […]), and the supernatant was further ultracentrifuged (4° C., 186,000×g, 60 min). The supernatant was discarded, and buffer A was added to the precipitate. The resultant was suspended using POLYTRON (4° C., 10,000 rpm, 10 sec×2) and passed through a 40-μm cell strainer to prepare a human SCD1-expressing membrane fraction (hereinafter, also simply referred to as human SCD1). The protein concentration was measured using BCA Protein Assay Kit (Thermo Fisher Scientific, Inc.) with BSA used as standards.
The obtained primary dilution was diluted 250-fold by the addition of an assay buffer (10 mM Tris-HCl, pH 7.5, 100 mM KCl, 10 mM NaF, 3 mM MgCl2, 0.005% Tween 20, 1 mM GSH) to obtain a secondary dilution. The human SCD1 diluted using an assay buffer was dispensed at 100 μL/well (containing 0.2 μg of the protein) to a polypropylene 96-well plate, and then, the secondary dilution of the compound was added thereto at 50 μL/well. Further, a solution of 12 nM compound Z diluted with an assay buffer was added thereto at 50 μL/well, and the plate was left standing at room temperature for 2 hours. Then, the contents in each well were transferred to each well of UniFilter-96 GF/C PEI coated plate (PerkinElmer, Inc.) wetted with a washing buffer, followed by washing five times with a washing buffer (10 mM Tris-HCl, pH 7.5). After drying of the filter plate, Microscint-O (PerkinElmer, Inc.) was added thereto at 25 μL/well, and the obtained radioactivity was measured using TopCount (PerkinElmer, Inc.). […]

[1] = system: human large intestine cancer cell line HCT116; test: Antitumor effect on human large intestine cancer cell line HCT116 cancer-bearing mice; assay type: in vivo, mouse; conditions: 10 mg/kg, 2 doses per day, orally for 14 days; HCT116 cancer-bearing BALB/c nude mice; tumor growth vs control group
Experimental: The compound of the present invention was evaluated for its antitumor effect on human large intestine cancer cell line HCT116 cancer-bearing mice by the following method.
The human large intestine cancer cell line HCT116 (purchased from ATCC (American Type Culture Collection)) was transplanted to each 6-week-old BALB/c female nude mouse (BALB/cA Jcl nu/nu: CLEA Japan Inc.) by the subcutaneous injection of 1.0×10^6 cells. After the transplantation, successfully engrafted tumor was observed, and the tumor size was measured 10 to 14 days after the transplantation. The tumor volume was calculated according to the following expression:
Tumor volume=Major axis×Minor axis×Minor axis×(½)
Individuals in which the volume of the engrafted tumor reached approximately 150 mm^3 were selected and used in the experiment as groups each involving 5 to 8 individuals. Each test compound was suspended in a 0.5% methylcellulose solution and orally administered to each individual for 14 days using the dose and the number of doses shown in the table below. Finally, in order to measure drug effects, the tumor volume was calculated from the tumor sizes at the day before the start of the administration and at the final day of the administration, and tumor growth in the test compound administration group compared with a control administration group given only a 0.5% methylcellulose solution was calculated as T/C according to the following expression:
T/C (%)=(Tumor volume after the completion of the administration of the test compound administration group−Tumor volume at the day before the start of the administration of the test compound administration group)/(Tumor volume after the completion of the administration of the control administration group−Tumor volume at the day before the start of the administration of the control administration group)×100

inhibition at 1 µM (human SCD1): 95%
Compound: N#CC1(c2ccc(C(F)(F)F)cc2)CCN(c2ccc(-c3nc(CO)no3)nn2)CC1 [Example 38, 1-(6-(3-(Hydroxymethyl)-1,2,4-oxadiazol-5-yl)pyridazin-3-yl)-4-(4-(trifluoromethyl)phenyl)piperidine-4-carbonitrile]
T/C (%) [1]: 85.8%
